Converted amounts (≈) assume the structure as drawn.
Key:
[1] = tested on: Pseudomonas aeruginosa ATCC27853; experiment: MIC against other strains, agar double dilution; details: ATCC27853, 24 h
M. tuberculosis H37Ra = experiment: microbe, parasite or virus in culture; format: cell-based, Mycobacterium tuberculosis; details: for MIC: Mycobacterium tuberculosis, H37RA, read-out: MIC against H37Ra
S. aureus ATCC33591 = experiment: MIC against other strains, agar double dilution; details: Staphylococcus aureus, ATCC33591, 24 h
A549 = experiment: Cell viability assay (MTT), A549; format: cell-based; details: Homo sapiens, 48 h
Method: (§1) Cell viabilities were measured by 3-(4,5-dimethylthiazol-2-yl)−2,5-diphenyltetrazolium bromide (MTT) assay. Briefly, 20 µL of 5 mg/mL MTT solution was added to the culture medium and incubated at 37°C for 3 h. Then 50 µL of 20% (wt/vol) SDS was directly added to each well and incubated at 37°C overnight. The plates were shaken for 15 s and the […] reading were obtained at 570 nm wavelength. The IC50 values were calculated using the GraphPad Prism 8 software.

Y198 (XDR) = experiment: microbe, parasite or virus in culture; format: cell-based, M. tuberculosis; details: for MIC: Mycobacterium tuberculosis
S. epidermidis ATCC12228 = experiment: MIC against other strains, agar double dilution; details: Staphylococcus epidermidis, ATCC12228, 24 h
Y17 (MDR) = experiment: microbe, parasite or virus in culture; format: cell-based, M. tuberculosis; details: for MIC: Mycobacterium tuberculosis
E. faecium ATCC19434 = experiment: MIC against other strains, agar double dilution; details: Enterococcus faecium, ATCC19434, 24 h
[2] = tested on: Staphylococcus aureus ATCC29213; experiment: MIC against other strains, agar double dilution; details: ATCC29213, 24 h
Y48 (MDR) = experiment: microbe, parasite or virus in culture; format: cell-based, M. tuberculosis; details: for MIC: Mycobacterium tuberculosis
E. coli ATCC35218 = experiment: MIC against other strains, agar double dilution; details: Escherichia coli, ATCC35218, 24 h
[3] = tested on: Enterococcus faecalis ATCC29212; experiment: MIC against other strains, agar double dilution; details: ATCC29212, 24 h
[4] = tested on: Escherichia coli ATCC25922; experiment: MIC against other strains, agar double dilution; details: ATCC25922, 24 h
in vitro = in vitro ADME; details: rat, plasma, pH 7.4
Method: 0.1 M sodium phosphate and 0.15 M NaCl buffer (pH = 7.4 ± 0.1) were preheated. The frozen plasma was thawed at 37°C. Plasma was centrifuged at 12,000 rpm for 5 min to remove clots. Pipette and collect the supernatant as the plasma to be used in the experiment. Dialysis membrane strips were soaked in distilled water for an hour. Add 20% by volume ethanol and soak for a further 20 min. The membrane strips were then rinsed in distilled water three times before use. Five microliters of 10 mM stock solution were added into 95 µL of acetonitrile (ACN) for reference and test compounds, which was 0.5 mM solution A. Eight microliters of 10 mM stock solution were added into 192 µL of ACN for reference and test compounds, which was 0.02 mM solution B. A 96-well plate with 380 µL aliquots of plasma was preloaded in the wells designated for plasma, respectively. Twenty microliters of solution B (0.02 mM) were spiked into the pre-loaded plasma in the 96-well plate. The final concentration is 1 µM, containing 0.01% DMSO. Aliquots of 100 µL of blank dialysis buffer were applied to the receiver side of dialysis chambers. Then, aliquots of 100 µL of the plasma spiked with test and reference compounds were applied to the donor side of the dialysis chambers (always add the blank buffer to the receiver first, clearly mark the buffer and plasma chamber holes to avoid cross-contamination). […]

human PDE6C = molecular target: T1, human PDE6C (Homo sapiens, UniProt P51160); experiment: IMAP fluorescence polarization assay against PDE6C; format: biochemical
T1 construct: purchased BPS 60060
Method: Prepare assay buffer and stop buffer were prepared. […] Fluorescein Amidite - cyclic Guanosine Monophosphate (FAM-cGMP) was added in the 1× assay buffer for PDE6C, which was the 2× substrate solution. Two times enzyme solution was transferred to the assay plate: (i) assay plate already contained corresponding volume of compound in 100% DMSO; (ii) add 2× enzyme solution to each well of the 384-well assay plate; and (iii) incubate at room temperature for 15 min. Two times substrate solution was transferred to the assay plate. PDE reaction and termination: (i) incubate at 25°C for 40 min; (ii) add stop buffer to stop reaction, and incubate at RT for 60 min. Data were collected on Envision (Perkin Elmer). Data were fitted in Excel to obtain inhibition values using equation (1). Equation (1): Inh % = (Max − Signal)/(Max − Min) × 100. Fit the data in XL-Fit to obtain IC50 values using equation (2). Equation (2): Y = Bottom + (Top − Bottom)/[1 + (IC50/X) × HillSlope]. Y is the % inhibition and X is the compound concentration.

VERO = experiment: Cell viability assay (MTT), VERO; format: cell-based; details: Chlorocebus sabaeus, 48 h
Method: as §1

H37Rv = experiment: MIC susceptibility testing against H37Rv; format: cell-based, Mycobacterium tuberculosis; details: for Fold increase: B18 versus TBA-7371; for MIC: Mycobacterium tuberculosis
physchem = format: physicochemical; details: 37 °C, water, thermodynamic from solid
Method: Aqueous solubility of selected compounds was determined by High Performance Liquid Chromatography (HPLC) analysis. […] The absorption intensity of different concentrations of solutions was obtained by HPLC. The linear regression equation between absorption intensity and concentration was obtained by statistical method (R ^2 >0.99). A supersaturated aqueous solution of the target compound was prepared and shaken in 37°C water bath for 24 h. The supersaturated solution was centrifuged and filtered. The absorption intensity of the supersaturated solution was obtained by HPLC. The concentration of saturated aqueous solution was obtained by linear regression equation, which was the aqueous solubility of target compound.

[5] = tested on: Klebsiella pneumoniae ATCC700603; experiment: MIC against other strains, agar double dilution; details: ATCC700603, 24 h
[6] = tested on: Streptococcus pneumoniae ATCC49619; experiment: MIC against other strains, agar double dilution; details: ATCC49619, 24 h

T1 sequence (P51160 whole entry): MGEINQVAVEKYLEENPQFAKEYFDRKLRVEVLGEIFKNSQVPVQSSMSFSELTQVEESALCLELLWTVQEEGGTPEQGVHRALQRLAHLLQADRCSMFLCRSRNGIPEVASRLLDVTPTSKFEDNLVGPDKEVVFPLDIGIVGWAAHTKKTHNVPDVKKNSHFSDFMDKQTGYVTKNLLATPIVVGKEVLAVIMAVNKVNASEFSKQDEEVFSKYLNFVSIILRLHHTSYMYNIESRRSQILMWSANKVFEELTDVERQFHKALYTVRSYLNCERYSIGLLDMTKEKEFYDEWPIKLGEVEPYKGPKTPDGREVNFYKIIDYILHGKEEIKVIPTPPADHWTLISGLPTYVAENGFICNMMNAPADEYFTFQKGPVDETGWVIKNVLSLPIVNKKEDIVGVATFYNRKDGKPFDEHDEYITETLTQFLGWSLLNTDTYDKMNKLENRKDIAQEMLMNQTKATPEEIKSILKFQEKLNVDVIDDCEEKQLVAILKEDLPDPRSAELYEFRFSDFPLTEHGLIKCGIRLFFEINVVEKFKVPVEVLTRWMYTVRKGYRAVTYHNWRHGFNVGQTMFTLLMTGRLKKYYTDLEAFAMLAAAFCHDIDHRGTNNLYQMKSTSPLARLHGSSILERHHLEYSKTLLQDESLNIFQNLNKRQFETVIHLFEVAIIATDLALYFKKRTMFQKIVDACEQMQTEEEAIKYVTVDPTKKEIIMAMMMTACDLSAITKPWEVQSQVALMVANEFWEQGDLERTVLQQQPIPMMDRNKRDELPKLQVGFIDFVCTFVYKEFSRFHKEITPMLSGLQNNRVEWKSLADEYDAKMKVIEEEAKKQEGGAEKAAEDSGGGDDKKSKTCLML

SMILES	MIC [1]	MIC (M. tuberculosis H37Ra)	MIC (S. aureus ATCC33591)	IC50 (A549)	MIC (Y198 (XDR))	MIC (S. epidermidis ATCC12228)	MIC (Y17 (MDR))	MIC (E. faecium ATCC19434)	MIC [2]	MIC (Y48 (MDR))	MIC (E. coli ATCC35218)	MIC [3]	MIC [4]	IC50 (VERO)	MIC (H37Rv; 72 h, 3 days)	MIC (H37Rv; 168 h, 7 days)	MIC [5]	MIC [6]	further results
Cc1nc(C)c(CN2CCOc3c(C(=O)NCC(F)(F)F)cc(C4CC4)cc32)nc1C [B18, 6-cyclopropyl-N-(2,2,2-trifluoroethyl)-4-((3,5,6-trimethylpyrazin-2-yl)methyl)-3,4-dihydro-2H-benzo[b][1,4]oxazine-8-carboxamide]	64 µg/mL (≈ 147 µM)	0.18 µg/mL (≈ 0.414 µM)	> 64 µg/mL	> 40 µM	5 µg/mL (≈ 11.5 µM)	> 64 µg/mL	0.6 µg/mL (≈ 1.38 µM)	> 64 µg/mL	> 64 µg/mL	0.6 µg/mL (≈ 1.38 µM)	> 64 µg/mL	> 64 µg/mL	64 µg/mL (≈ 147 µM)	> 40 µM	0.625 µg/mL (≈ 1.44 µM)	0.625 µg/mL (≈ 1.44 µM)	64 µg/mL (≈ 147 µM)	> 64 µg/mL	MBC/MIC (M. tuberculosis H37Ra): < 4; MIC against H37Ra (M. tuberculosis H37Ra): 0.18; Fold increase (Y198 (XDR); […], B18 versus TBA-7371): 0.25; Fold increase (Y17 (MDR); […], B18 versus TBA-7371): 1; Fold increase (Y48 (MDR); […], B18 versus TBA-7371): 1; fraction unbound at 5 h, 1 µM (in vitro): 0.042; IC50 (human PDE6C): 81 µM; Fold increase (H37Rv; 3 days): 4; Fold increase (H37Rv; 7 days): 1; solubility at 24 h (physchem): 21 µg/mL (≈ 48.3 µM)
COc1ccc(F)c(F)c1Cn1ccc2c(C(=O)NCC(F)F)cc(C)cc21 [A7, 1-(2,3-difluoro-6-methoxybenzyl)-N-(2,2-difluoroethyl)-6-methyl-1H-indole-4-carboxamide]		> 6.25 µg/mL																	
Cc1nc(C)c(CN2CCOc3c(C(=O)NC4CCC(F)(F)CC4)cc(C4CC4)cc32)nc1C [B32, 6-cyclopropyl-N-(4,4-difluorocyclohexyl)-4-((3,5,6-trimethylpyrazin-2-yl)methyl)-3,4-dihydro-2H-benzo[b][1,4]oxazine-8-carboxamide]		> 25 µg/mL																	
Cc1nc(C)c(CN2CCOc3c(C(=O)N[C@@H](C)C(F)(F)F)cc(C4CC4)cc32)nc1C [B26, (S)-6-cyclopropyl-N-(1,1,1-trifluoropropan-2-yl)-4-((3,5,6-trimethylpyrazin-2-yl)methyl)-3,4-dihydro-2H-benzo[b][1,4]oxazine-8-carboxamide]		> 25 µg/mL																	
Cc1nc(C)c(CN2CCOc3c(C(=O)N(C)CC(F)(F)F)cc(C4CC4)cc32)nc1C [B34, 6-cyclopropyl-N-methyl-n-(2,2,2-trifluoroethyl)-4-((3,5,6-trimethylpyrazin-2-yl)methyl)-3,4-dihydro-2H-benzo[b][1,4]oxazine-8-carboxamide]		> 25 µg/mL																	
COc1ncnc(Cn2cc(C(=O)NCCO)c3ncc(C)cc32)c1C [TBA-7371, reference compound]	> 64 µg/mL	0.18 µg/mL (≈ 0.506 µM)	> 64 µg/mL	> 40 µM	1.25 µg/mL (≈ 3.52 µM)	> 64 µg/mL	0.6 µg/mL (≈ 1.69 µM)	> 64 µg/mL	> 64 µg/mL	0.6 µg/mL (≈ 1.69 µM)	> 64 µg/mL	> 64 µg/mL	> 64 µg/mL	> 40 µM	2.5 µg/mL (≈ 7.03 µM)	0.625 µg/mL (≈ 1.76 µM)	> 64 µg/mL	> 64 µg/mL	

Reference: PMC10581193 (Microbiology Spectrum, 2023)
